Data reported in patent US20210144999A1, “COMPOSITIONS COMPRISING HYDROXYCINNAMIC ACID AND RELATED CONJUGATES, ANALOGUES AND DERIVATIVES, AND METHODS OF USE THEREOF” (YEDA RESEARCH AND DEVELOPMENT CO. LTD., priority 2017, published 2021).
Entries after “also recorded” stand apart in the source; their conditions may differ.

Assays:
[1] = system: B. subtilis biofilms; assay: B. subtilis biofilm stability / maintenance in vitro; type: cell-based; conditions: in vitro and in vivo, specific environmental conditions such as iron starvation
Procedure: Shown are biofilms of treated and untreated B. subtilis biofilms.
Strains and Media All experiments were performed with B. subtilis NCBI3610 and its derivatives. Assays were carried out with the biofilm-inducing medium, MSgg: 5 mM potassium phosphate, 100 mM MOPS (pH 7), 2 mM MgCl2, 50 μM MnCl2, 1 μM ZnCl2, 2 μM thiamine, 0.5% glycerol, 0.5% glutamate, 50 μg/ml tryptophan, 50 μg/mlphenylalanine 50 μg/ml threonine, 700 μM CaCl2, and 50 μM (for growth assays) or 125 μM (for biofilm assays) FeCl3^1. A solid MSgg medium was obtained by adding Bacto agar (Difco) to a final concentration of 1.5%. When necessary, selective medium was prepared with LB-agar or LB broth, supplemented with: 100 μg/ml ampicillin (amp) (AG Scientific), or 10 μg/ml kanamycin (kan) (AG Scientific), or 10 μg/ml chloramphenicol (cam) (Amresco), or 10 μg/ml tetracycline (tet) (Amresco), or 100 μg/ml spectinomycin (spec) (Tivan Biotech), or 1 μg/mlerythromycin (erm) (Amresco)+25 μg/ml lincomycin (linc) (Sigma Aldrich).

[2] = system: P. syringae strain DC3000 pv tomato; assay: Bioprotection of tomato plants by B. subtilis against pseudomonas syringae; type: in vivo; conditions: 5 μM RID with 1000 B. subtilis cells; 100 or 10,000 pathogen cells
Procedure: FIGS. 18A-18B: Purified RID improved the bioprotection versus pseudomonas syringae achieved by Bacillus. Bacillus strain B. subtilis 3610 (B.S) was used. The bacterial strain was maintained on LB plates. 1000 cells either applied or non-applied with 5 μM of RID were added to tomato plants grown on agrophonic beads. Plants were incubated at 28±2° C. for 15 days. P. syringae strain DC3000 pv tomato (P.S) culture was grown in LB at 37° C. to OD600=0.2 to 0.3 (3*10^8 cells per ml) and diluted to 100 cells (FIG. 18A) 10,000 (FIG. 18B) cells retrospectively (w/v) into the plant media. Plants were further incubated at 28±2° C. for 10 days and the growth of the pathogen was measured and compared with the control. Three replications were maintained for each assay. SD represents the average of three independent experiments.
Bacillus strain B. subtilis 3610 (B.S) was maintained on LB plates. 1000 cells of B.S. with or without the addition of 5 μM of RID were added to tomato plants grown on agrophonic beads. Plants were incubated at 28±2° C. for 15 days.
P. syringae strain DC3000 pv tomato (P.S) was grown in LB at 37° C. to OD600=0.2 to 0.3 (3*10^8 cells per ml) and diluted to 10,000 cells retrospectively (w/v) into the plant media. Plants were further incubated at 28±2° C. for 10 days and the growth ofthe pathogen was measured and compared with the control. […]

[3] = system: rhyzoctonia solani; assay: Bioprotection of tomato plants by B. subtilis against rhyzoctonia solani; type: in vivo; conditions: RID with B. subtilis
Procedure: ISR assay. Arabidopsis thaliana or Microtome tomato seedlings were grown on NITCH-agar for 10 days. Then each seedling was transferred to separate solid MSgg plate. In order to test the effects of either treated or untreated B. subtilis on the Induced systemic resistance (ISR), bacterial cells were inoculated aside to the root (as mentioned above) and incubated at 23° C. for five days. Alternatively and as indicated in the corresponding figure legend, we inoculated the bacterial cells directly on the root. Then the first leaf was infected by puncturing by needle and inoculating with the necrosis-causing pathogens, Pseudomonas syringae DC3000 or rhyzoctonia solani (Kuhn). Five days after infection with P. syringae, plants were further analyzed.
Tomato infections (FIGS. 18A, 18B and 19).

[4] = system: P. syringae; assay: Bioprotection of Arabidopsis thaliana by B. subtilis against pseudomonas syringae; type: in vivo; conditions: 5 μM purified RID with 1000 B. subtilis cells, 100 or 10,000 pathogen cells
Procedure: (§1) FIG. 19: Purified RID improved the bioprotection versus pseudomonas syringae and rhyzoctonia solani achieved by Bacillus. We used Bacillus strain B. subtilis 3610 (B.S). The bacterial strain was maintained on LB plates. 1000 cells either applied or non-applied with 5 μM of purified RID were added to Arabidopsis thaliana plants grown on MS solid media. Plants were incubated at 26±2° C. for 5 days. P. syringae (P.S) or R. solani (R.S) were grown in TSB at 37° C. to OD600=0.2 to 0.3 (3*10^8 cells per ml) and diluted to 100 cells, or 10,000 cells retrospectively (w/v) into the plant media. Plants were further incubated at 28±2° C. for 5 days and the growth of the pathogen was measured and compared with the control. Three replications were maintained for each assay. SD represents the average of three independent experiments.
(§2) Bacillus strain B. subtilis 3610 (B.S) was maintained on LB plates. 1000 cells with or without 5 μM of purified RID were added to Arabidopsis thaliana plants grown on MS solid media. Plants were incubated at 26±2° C. for 5 days. P. syringae (P.S) or R. solani (R.S) were grown in TSB at 37° C. to OD600=0.2 to 0.3 (3*10^8 cells per ml) and diluted to 100 cells, or 10,000 cells retrospectively (w/v) into the plant media. Plants were further incubated at 28±2° C. for 5 days and the growth of the pathogen was measured and compared with the control. […]

[5] = system: R. solani; assay: Bioprotection of Arabidopsis thaliana by B. subtilis against rhyzoctonia solani; type: in vivo; conditions: 5 μM purified RID with 1000 B. subtilis cells, 100 or 10,000 pathogen cells
Procedure: as §1, §2

[6] = system: B. subtilis 3610 Δ yclQ mutant biofilms; assay: Biofilm (pellicle) development of B. subtilis strain defective in iron uptake; type: cell-based; conditions: Δ yclQ mutant pellicles with or without purified RID
From the text: Biofilms grown in the presence and absence of RID in B. subtilis 3610 and its derivate (Δ yclQ) mutant in iron uptake pathways (Zawadzka et al., 2009). Untreated pellicles are shown in the top panel. Pellicles applied with purified RID are shown below.

NCCCCNC(=O)/C=C/c1ccc(O)c(O)c1 [RID, caffeoyl putrescine]
disassembly of B. subtilis biofilms [1]: blocks the disassembly of B. subtilis biofilms in vitro and in vivo
B. subtilis-mediated protection of tomato plants from pseudomonas syringae pv. Tomato [2]: enhanced the protective effects of Bacillus subtilis on tomato plant mortality; also recorded: improved significantly the duration of protection achieved by Bacillus subtilis and the resistance to high inoculum of infection
B. subtilis-mediated protection of tomato plants from rhyzoctonia solani [3]: enhanced the protective effects of Bacillus subtilis on tomato plant mortality
B. subtilis-mediated protection of Arabidopsis (Brassicaceae) from pseudomonas syringae [4]: improved significantly protection achieved by Bacillus subtilis
B. subtilis-mediated protection of Arabidopsis (Brassicaceae) from pseudomonas syringae ([4]; listed as purified RID): significantly improve the protection of Brassicaceae plants
B. subtilis-mediated protection of Arabidopsis (Brassicaceae) from rhyzoctonia solani [5]: improved significantly protection achieved by Bacillus subtilis
B. subtilis-mediated protection of Arabidopsis (Brassicaceae) from rhyzoctonia solani ([5]; listed as purified RID): significantly improve the protection of Brassicaceae plants
biofilm development of iron-uptake defective B. subtilis [6]: compensated for the biofilm defect; also recorded: can promote the development of biofilms
